{"source": "patent US11000491B2", "about": "“Amino-aryl-benzamide compounds and methods of use thereof” (HEPANOVA, INC., priority 2017, dated 2021)", "key": {"adiponectin": {"system": "adiponectin", "test": "Secreted adiponectin in differentiated 3T3-L1 cells by ELISA", "type": "cell-based", "conditions": "differentiated mouse 3T3-L1 cells", "experimental": "Differentiated, mouse 3T3-L1 cells were treated with varying concentrations of HPN-01, and the level of secreted adiponectin measured by ELISA."}, "nSTZ+HFD NASH mice": {"system": "nSTZ+HFD NASH mice", "test": "Streptozotocin (STZ) and high fat diet-induced (nSTZ+HFD) NASH mice", "type": "in vivo, C57/BL6J mice", "conditions": "5 or 15 mpk orally BID, 3 weeks", "experimental": "FIG. 27. Design of study to test in vivo HPN-01 efficacy on streptozotocin (STZ) and high fat diet-induced (nSTZ+HFD) NASH mice.\nThe effect of HPN-01 on various physical and biochemical parameters in mice induced to develop NASH was tested. Briefly, newborn C57/BL6J mice were divided into 5 groups, with 8 animals per group. […] The remaining four groups were injected on days 2, 3 and 4, with Vehicle (Vehicle consists of 40% PEG400:10% Cremophor EL:50% water) containing 90 μg of streptozotocin (STZ), and fed a high fat diet (HFD) from week 4 through week 9 to establish NASH hallmarks in the liver. One of the groups (Vehicle group) that received STZ was not given any further drug treatment. The remaining three groups received either orally administered Telmisartan or orally administered HPN-01 starting at week 6 and continuing for 3 weeks. Telmisartan was orally administered once per day (QD) at a dosage of 10 mpk (mg/kg weight); this group served as a positive control. HPN-01 was administrated orally twice a day (BID) with either a lower (5 mpk) or a higher (15 mpk) dose. For each group, body weight and food intake were recorded daily.\nAt the end of the study, animals were fasted overnight, and fasted blood glucose levels measured and compared with a fasted glucose level obtained on Day 1 of the study.\nMice were then euthanized, and whole blood drawn by cardiac puncture. Sera were prepared and stored at −80° C. for alanine aminotransferase (ALT), aspartate aminotransferase (AST), triglyceride (TG) and total cholesterol (TC) detection. Livers were isolated and liver weights were recorded. Liver tissues were stored at −80° C. for TG, TC detection, measurement of various inflammatory and fibrotic markers, and pathological studies.\nLiver tissues from various groups from the study shown in FIG. 27 were observed under a microscope following Hematoxylin and Eosin (H&E) stain and Oil-red-O staining, and an NAFLD activity score determined. Additional NAFLD/NASH pathology scores were also determined, including a hepatic steatosis score (FIG. 35B), a ballooning score (FIG. 35C) and an inflammation score (FIG. 35D)."}, "[1]": {"system": "high fat diet-induced NAFLD/NASH mice", "test": "High fat diet-induced NAFLD/NASH mice", "type": "in vivo, C57BL/6 mice", "experimental": "FIG. 11. Study design of in vivo HPN-01 effects on high fat diet-induced NAFLD/NASH mice.\nEight-week old C57BL/6 mice were divided into a test group and a control group. The control group mice were fed with normal chow diet (NCD) for 24 weeks. The test group was further divided into a preventing group and a treatment group. In the preventing group, mice were fed with high-fat diet (HFD) and simultaneously treated with 25 mg/kg of HPN-01 or vehicle daily for 16 weeks, after which time the mice were euthanized and evaluated for NAFLD/NASH development. In the treatment group, mice were fed with HFD for 12 weeks to stimulate the development of NAFLD/NASH, and then treated with 25 mg/kg of HPN-01 or vehicle daily for additional 12 weeks. The mice were then euthanized and evaluated for the presence of NAFLD/NASH. This study design is illustrated in FIG. 11.\nTo determine the effect of HPN-01 on various fat-related molecules in the liver of mice from the study in Example 8, liver tissues were isolated and prepared and the levels of hepatic triglyceride and glycogen were measured.\nThe livers of mice from the study of Example 8 were also analysed for their levels of cholesterol, SREBP-1, and fatty acid synthesis. […] Likewise, SREBP-1 expression in HFD-fed mice with HPN-01 treatment was 0.52±0.06, a reduction of about 48% when compared with HFD-fed mice receiving only vehicle (FIG. 15B).\nPlasma cholesterol and triglyceride levels were determined in blood taken from mice in the study described in Example 8.\nLiver tissues from mice in the study of Example 8 were analysed for the expression level of inflammatory cytokines.\nLiver tissues from mice in the study of Example 8 were analysed for the expression levels of hepatic molecules involved in the formation of fibrotic scarring.\nLiver tissues were then analysed to determine the levels of various pro-fibrotic cytokines. […] The expression level of TIMP2, a fibrosis suppressor, was increased in the presence of HPN-01."}, "SREBP-1": {"system": "SREBP-1", "test": "SREBP-1 expression in cultured primary human hepatocytes", "type": "cell-based", "conditions": "Hepatocyte", "summary_of_the_method": "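Primary human hepatocytes in culture exposed to a range of HPN-01 derivative concentrations; SREBP-1 and SREBP-2 mRNA expression then measured to assess inhibition.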"}, "[2]": {"test": "Cytotoxicity, inhibition of cell growth", "type": "cell-based", "conditions": "human, read-out: CC50 (cytotoxic concentration that will kill half of the treated cells)", "experimental": "FIGS. 10A and 10B. Inhibition of hepatocyte growth by HPN-01.\nHuh7 cells and primary human hepatocytes were cultured in the presence of varying concentrations of HPN-01, and the inhibition of cell growth was measured."}, "[3]": {"conditions": "HFD-fed mice with HPN-01 treatment"}, "[4]": {"conditions": "HFD-fed mice, 25 mg/kg daily, 25 mg/kg"}, "[5]": {"conditions": "HFD-fed mice, preventing group (25 mg/kg daily, 16 weeks)"}, "[6]": {"conditions": "HFD-fed mice, treatment group (HFD 12 weeks, then 25 mg/kg daily 12 weeks)"}}, "note": "“Also recorded” adds a separate entry of the source. Like-named read-outs stand apart in the source and are kept apart here.", "data": [{"smiles": "NC(=O)c1cc(-c2ccc(Cl)cc2)cc(-c2ccc(S(N)(=O)=O)cc2)c1N", "note": "[HPN-01, 2-amino-3-(p-sulfonamidophenyl)-5-(p-chlorophenyl) benzamide]", "values": [{"measurement": "IC50", "setting": "adiponectin", "value": 0.32, "unit": "µM"}, {"measurement": "body weight", "setting": "nSTZ+HFD NASH mice", "value": "no effect"}, {"measurement": "daily food intake", "setting": "nSTZ+HFD NASH mice", "value": "no effect"}, {"measurement": "fasted blood glucose levels", "setting": "nSTZ+HFD NASH mice; Day-22 vs Day-1", "value": "no effect"}, {"measurement": "elevation of hepatic TC", "setting": "nSTZ+HFD NASH mice; dose-dependent", "value": "significantly reversed"}, {"measurement": "elevation of hepatic TG", "setting": "nSTZ+HFD NASH mice; dose-dependent", "value": "significantly reversed"}, {"measurement": "elevation of serum ALT", "setting": "nSTZ+HFD NASH mice; dose-dependent", "value": "significantly reversed"}, {"measurement": "elevation of serum AST", "setting": "nSTZ+HFD NASH mice; dose-dependent", "value": "significantly reversed"}, {"measurement": "increase of serum total cholesterol (TC)", "setting": "nSTZ+HFD NASH mice; dose-dependent", "value": "significantly abated"}, {"measurement": "increase of serum triglyceride (TG)", "setting": "nSTZ+HFD NASH mice; dose-dependent", "value": "significantly abated"}, {"measurement": "liver COL1A1 level", "setting": "nSTZ+HFD NASH mice; dose-dependent", "value": "reduced"}, {"measurement": "liver MCP-1 mRNA", "setting": "nSTZ+HFD NASH mice; dose-dependent", "value": "significantly suppressed"}, {"measurement": "liver TGF-β1 level", "setting": "nSTZ+HFD NASH mice; dose-dependent", "value": "reduced"}, {"measurement": "liver TIMP-1 level", "setting": "nSTZ+HFD NASH mice; dose-dependent", "value": "reduced"}, {"measurement": "liver TNF-α mRNA", "setting": "nSTZ+HFD NASH mice; dose-dependent", "value": "significantly suppressed"}, {"measurement": "plasma cholesterol level", "setting": "[1]; HFD-fed mice receiving HPN-01", "value": "43.0 ± 15.5", "unit": "mg/dL"}, {"measurement": "plasma triglyceride level", "setting": "[1]; HFD-fed mice receiving HPN-01", "value": "31.2 ± 4.5", "unit": "mg/dL"}, {"measurement": "hepatic SREBP-1 expression (relative)", "setting": "[1]; [3]", "value": "0.52±0.06"}, {"measurement": "hepatic cholesterol level", "setting": "[1]; [3]", "value": "3.9±1.1", "unit": "mg per g tissue"}, {"measurement": "hepatic fatty acid synthesis", "setting": "[1]; [3]", "value": "13.2±2.8", "unit": "DPMs/mg"}, {"measurement": "size and color of liver", "setting": "[1]; HFD-fed mice, 25 mg/kg daily", "value": "very similar to the control mice"}, {"measurement": "LD deposition and inflammatory infiltration in liver sections (H&E, Oil-red-O)", "setting": "[1]; HFD-fed mice, 25 mg/kg daily, preventing and treatment groups", "value": "substantially diminished"}, {"measurement": "body weight increase / HFD-triggered obesity", "setting": "[1]; [4]", "value": "significantly remitted; also recorded: reversed HFD-triggered obesity"}, {"measurement": "fat deposition / visceral fat accumulation", "setting": "[1]; [4]", "value": "significantly remitted; also recorded: significantly alleviated visceral fat accumulation"}, {"measurement": "liver glycogen level", "setting": "[1]; [5]", "value": "8.4 ± 1.6", "unit": "µg/mg"}, {"measurement": "liver triglyceride level", "setting": "[1]; [5]", "value": "67.2 ± 28.3", "unit": "mg/g"}, {"measurement": "liver glycogen level", "setting": "[1]; [6]", "value": "13.3 ± 3.5", "unit": "µg/mg"}, {"measurement": "liver triglyceride level", "setting": "[1]; [6]", "value": "75.5 ± 19.8", "unit": "mg/g"}, {"measurement": "decrease of hepatic cholesterol vs vehicle", "setting": "[1]; HFD-fed mice, vs vehicle only", "value": "about 1.92 fold"}, {"measurement": "decrease of hepatic fatty acid synthesis vs vehicle", "setting": "[1]; HFD-fed mice, vs vehicle only", "value": "about 3.18 fold"}, {"measurement": "decrease of plasma cholesterol vs vehicle", "setting": "[1]; HFD-fed mice, vs vehicle only", "value": 2.75, "unit": "fold"}, {"measurement": "decrease of plasma triglyceride vs vehicle", "setting": "[1]; HFD-fed mice, vs vehicle only", "value": 1.87, "unit": "fold"}, {"measurement": "reduction of hepatic SREBP-1 expression vs vehicle", "setting": "[1]; HFD-fed mice, vs vehicle only", "value": "about 48%"}, {"measurement": "HFD induction of ITGA2, LOX, TIMP1, IGFBP1, IGFBP2, IGFBP3, IGFBP5, IGFBP6 and FGF-21 in liver", "setting": "[1]; liver tissue mRNA, HFD-fed mice", "value": "significantly suppressed"}, {"measurement": "HFD induction of hepatic expression of ICAM1(CD54), IL-1B, IL-8, MCP-1, THF-α and LIF", "setting": "[1]; liver tissue, HFD-fed mice", "value": "substantially abrogated; also recorded: suppressed"}, {"measurement": "expression level of TIMP2 (fibrosis suppressor) in liver", "setting": "[1]; liver tissue, HFD-fed mice", "value": "increased"}, {"measurement": "IC50", "setting": "SREBP-1", "value": 1.71, "unit": "µM"}, {"measurement": "CC50", "setting": "[2]; Huh7 cells", "value": 54.3, "unit": "µM"}, {"measurement": "CC50", "setting": "[2]; primary human hepatocytes", "value": 77.2, "unit": "µM"}]}]}
